Laboratory results from PubChem BioAssay AID272 (DTP/NCI, 2004).
Values joined by “and” are separate entries in the source; they are usually repeats but may differ in a detail not shown here. Identical values can stand only once. Results filed as inconclusive are left out.

System: Lewis lung carcinoma i.m., BDF1 mice, T/C %
Experiment: NCI In Vivo Anticancer Drug Screen. Data for tumor model Lewis Lung Carcinoma (intramuscular) in B6D2F1 (BDF1) mice
Protocol: The antitumor activity of compounds was measured in mice bearing transplantable tumors. Survival or tumor size were measured and the results are expressed as the measurement made in the treated group (T) divided by the measurement made in the vehicle treated control group (C). The tumor model used in this assay is Lewis Lung Carcinoma (intramuscular) in B6D2F1 (BDF1) mice

With `O=P1(N(CCCl)CCCl)NCCCO1` (configuration not stated) the T/C (endpoint: mean tumor weight (est.), dose: 65.0 mg/kg/injection, schedule: Q01DX011 (ip), vehicle: saline, higher = larger tumour) was 40 % of control, the T/C (endpoint: mean tumor weight, dose: 65.0 mg/kg/injection, schedule: Q01DX001 (sc), vehicle: saline, higher = larger tumour) was 44 % of control and the T/C (endpoint: mean tumor weight, dose: 100.0 mg/kg/injection, schedule: Q01DX001 (ip), vehicle: saline, higher = larger tumour) was 58 % of control. For the same compound, the T/C (endpoint: mean tumor weight, dose: 108.0 mg/kg/injection, schedule: Q01DX001 (sc), vehicle: saline, higher = larger tumour) was 39 % of control, the T/C (endpoint: mean tumor weight, dose: 180.0 mg/kg/injection, schedule: Q01DX001 (ip), vehicle: saline, higher = larger tumour) was 13 % of control and the T/C (endpoint: mean tumor weight, dose: 180.0 mg/kg/injection, schedule: Q01DX001 (sc), vehicle: saline, higher = larger tumour) was 27 % of control. For the same compound, the T/C (endpoint: mean tumor weight, dose: 300.0 mg/kg/injection, schedule: Q01DX001 (sc), vehicle: saline, higher = larger tumour) was 31 % of control, the T/C (endpoint: median survival time, dose: 6.25 mg/kg/injection, schedule: Q01DX009 (ip), vehicle: saline, higher = longer survival) was 106 % of control and the T/C (endpoint: median survival time, dose: 12.5 mg/kg/injection, schedule: Q01DX009 (ip), vehicle: saline, higher = longer survival) was 116 % of control. For the same compound, the T/C (endpoint: median survival time, dose: 12.5 mg/kg/injection, schedule: Q03DX010 (ip), vehicle: saline, higher = longer survival) was 109 % of control and 110 % of control, the T/C (endpoint: median survival time, dose: 19.0 mg/kg/injection, schedule: Q01DX007 (sc), vehicle: saline, higher = longer survival) was 100 % of control and the T/C (endpoint: median survival time, dose: 23.0 mg/kg/injection, schedule: Q08DX003 (sc), vehicle: saline, higher = longer survival) was 121 % of control. For the same compound, the T/C (endpoint: median survival time, dose: 25.0 mg/kg/injection, schedule: Q01DX009 (ip), vehicle: saline, higher = longer survival) was 114 % of control, the T/C (endpoint: median survival time, dose: 39.0 mg/kg/injection, schedule: Q08DX003 (ip), vehicle: saline, higher = longer survival) was 100 % of control and 105 % of control and the T/C (endpoint: median survival time, dose: 39.0 mg/kg/injection, schedule: Q08DX003 (sc), vehicle: saline, higher = longer survival) was 184 % of control and 186 % of control. For the same compound, the T/C (endpoint: median survival time, dose: 50.0 mg/kg/injection, schedule: Q01DX001 (ip), vehicle: methylcellulose (MC), higher = longer survival) was 104 % of control and 106 % of control, the T/C (endpoint: median survival time, dose: 50.0 mg/kg/injection, schedule: Q01DX009 (ip), vehicle: saline, higher = longer survival) was 114 % of control and the T/C (endpoint: median survival time, dose: 52.0 mg/kg/injection, schedule: Q01DX007 (sc), vehicle: saline, higher = longer survival) was 95 % of control and 105 % of control. For the same compound, the T/C (endpoint: median survival time, dose: 65.0 mg/kg/injection, schedule: Q08DX003 (ip), vehicle: saline, higher = longer survival) was 161 % of control, the T/C (endpoint: median survival time, dose: 65.0 mg/kg/injection, schedule: Q08DX003 (sc), vehicle: saline, higher = longer survival) was 191 % of control and 192 % of control and the T/C (endpoint: median survival time, dose: 65.0 mg/kg/injection, schedule: Q14DX002 (ip), vehicle: saline, higher = longer survival) was 168 % of control. For the same compound, the T/C (endpoint: median survival time, dose: 86.0 mg/kg/injection, schedule: Q01DX007 (sc), vehicle: saline, higher = longer survival) was 78 % of control, the T/C (endpoint: median survival time, dose: 100.0 mg/kg/injection, schedule: Q01DX001 (ip), vehicle: methylcellulose (MC), higher = longer survival) was 198 % of control and 235 % of control and the T/C (endpoint: median survival time, dose: 100.0 mg/kg/injection, schedule: Q14DX002 (ip), vehicle: saline, higher = longer survival) was 159 % of control. The T/C (endpoint: median survival time, dose: 108.0 mg/kg/injection, schedule: Q08DX003 (ip), vehicle: saline, higher = longer survival) was 89 % of control, the T/C (endpoint: median survival time, dose: 108.0 mg/kg/injection, schedule: Q08DX003 (sc), vehicle: saline, higher = longer survival) was 173 % of control and 186 % of control and the T/C (endpoint: median survival time, dose: 108.0 mg/kg/injection, schedule: Q14DX002 (ip), vehicle: saline, higher = longer survival) was 154 % of control. For the same compound, the T/C (endpoint: median survival time, dose: 144.0 mg/kg/injection, schedule: Q01DX001 (sc), vehicle: saline, higher = longer survival) was 151 % of control, the T/C (endpoint: median survival time, dose: 180.0 mg/kg/injection, schedule: Q08DX003 (ip), vehicle: saline, higher = longer survival) was 68 % of control and the T/C (endpoint: median survival time, dose: 180.0 mg/kg/injection, schedule: Q08DX003 (sc), vehicle: saline, higher = longer survival) was 100 % of control and 103 % of control. For the same compound, the T/C (endpoint: median survival time, dose: 180.0 mg/kg/injection, schedule: Q14DX002 (ip), vehicle: saline, higher = longer survival) was 113 % of control, the T/C (endpoint: median survival time, dose: 200.0 mg/kg/injection, schedule: Q01DX001 (ip), vehicle: methylcellulose (MC), higher = longer survival) was 39 % of control and the T/C (endpoint: median survival time, dose: 200.0 mg/kg/injection, schedule: Q03DX010 (ip), vehicle: saline, higher = longer survival) was 30 % of control. The T/C (endpoint: median survival time, dose: 200.0 mg/kg/injection, schedule: Q14DX002 (ip), vehicle: saline, higher = longer survival) was 122 % of control, the T/C (endpoint: median survival time, dose: 240.0 mg/kg/injection, schedule: Q01DX001 (sc), vehicle: saline, higher = longer survival) was 174 % of control and 180 % of control and the T/C (endpoint: median survival time, dose: 300.0 mg/kg/injection, schedule: Q01DX001 (ip), vehicle: saline, higher = longer survival) was 63 % of control. The T/C (endpoint: median survival time, dose: 300.0 mg/kg/injection, schedule: Q01DX001 (sc), vehicle: saline, higher = longer survival) was 160 % of control, the T/C (endpoint: median survival time, dose: 300.0 mg/kg/injection, schedule: Q08DX003 (ip), vehicle: saline, higher = longer survival) was 57 % of control and the T/C (endpoint: median survival time, dose: 400.0 mg/kg/injection, schedule: Q01DX001 (ip), vehicle: methylcellulose (MC), higher = longer survival) was 22 % of control. For the same compound, the T/C (endpoint: median survival time, dose: 400.0 mg/kg/injection, schedule: Q01DX001 (ip), vehicle: saline, higher = longer survival) was 60 % of control, the T/C (endpoint: median survival time, dose: 400.0 mg/kg/injection, schedule: Q01DX001 (sc), vehicle: saline, higher = longer survival) was 49 % of control and the T/C (endpoint: median survival time, dose: 460.0 mg/kg/injection, schedule: Q01DX001 (ip), vehicle: saline, higher = longer survival) was 18 % of control. For the same compound, the T/C (endpoint: median tumor weight (est.), dose: 65.0 mg/kg/injection, schedule: Q01DX001 (ip), vehicle: saline, higher = larger tumour) was 27 % of control.
For `CCCCc1ccc(NC(=O)N(CCCl)N=O)cc1`, the T/C (endpoint: median survival time, dose: 3.0 mg/kg/injection, schedule: Q07DX003 (ip), vehicle: Klucel (hydroxypropylcellulose) (HPC), higher = longer survival) was 112 % of control, the T/C (endpoint: median survival time, dose: 5.0 mg/kg/injection, schedule: Q07DX003 (ip), vehicle: Klucel (hydroxypropylcellulose) (HPC), higher = longer survival) was 106 % of control and the T/C (endpoint: median survival time, dose: 14.0 mg/kg/injection, schedule: Q07DX003 (ip), vehicle: Klucel (hydroxypropylcellulose) (HPC), higher = longer survival) was 110 % of control. The T/C (endpoint: median survival time, dose: 23.0 mg/kg/injection, schedule: Q07DX003 (ip), vehicle: Klucel (hydroxypropylcellulose) (HPC), higher = longer survival) was 87 % of control.
